Drawing on US20080242681A1, “N-4-(6-(Hetero)Aryl-Pyrimidin-4-Ylaminophenyl)-Benzenesulfonamides as Kinase Inhibitors” (Altana Pharma AG, priority 2004, published 2008), this text covers IC50 for 17 compounds.

Where a name gives a salt, the structure may show the parent alone. Where only a bound is given, the exact number is not on record here.

One assay deals with T1, PKCβ1 (Homo sapiens, UniProt P05771).
T1 construct: purchased Panvera
T1 sequence (P05771 whole entry): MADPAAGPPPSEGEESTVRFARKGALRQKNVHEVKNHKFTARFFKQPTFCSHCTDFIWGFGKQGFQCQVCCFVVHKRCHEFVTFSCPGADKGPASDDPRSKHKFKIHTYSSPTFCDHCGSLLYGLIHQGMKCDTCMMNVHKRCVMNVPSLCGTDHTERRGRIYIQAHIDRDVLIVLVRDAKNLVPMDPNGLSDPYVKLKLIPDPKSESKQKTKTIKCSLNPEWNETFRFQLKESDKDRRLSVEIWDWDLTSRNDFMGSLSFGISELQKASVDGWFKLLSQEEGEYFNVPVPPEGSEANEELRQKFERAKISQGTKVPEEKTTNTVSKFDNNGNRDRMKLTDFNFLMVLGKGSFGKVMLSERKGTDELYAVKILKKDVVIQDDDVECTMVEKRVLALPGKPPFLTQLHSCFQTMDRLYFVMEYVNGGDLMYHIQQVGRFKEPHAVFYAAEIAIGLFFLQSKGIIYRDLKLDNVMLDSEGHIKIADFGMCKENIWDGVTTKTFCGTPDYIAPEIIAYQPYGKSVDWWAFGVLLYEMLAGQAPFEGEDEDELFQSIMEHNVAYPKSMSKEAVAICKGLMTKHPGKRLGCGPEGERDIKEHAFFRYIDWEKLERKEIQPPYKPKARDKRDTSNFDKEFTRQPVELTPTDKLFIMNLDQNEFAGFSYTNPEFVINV
Nature of the assay: Protein Kinase Cβ1 assay (SPA). It counts as biochemical. To be noted: human recombinant PKCβ1, SPA, biotinylated PKCα pseudosubstrate, 0.5 mM CaCl2; read-out: IC50, inhibition of PKC β1. On the procedure:
(§1) The compounds of formula 1 are tested for their activity on different protein kinases and PKC isoforms using a scintillation proximity assay (SPA, Amersham International plc). ^33P-labeled peptides are captured onto streptavidin coated yttrium silicate SPA beads. β-particles, emitted from the captured ^33P-labeled substrate in close proximity to the bead are able to excite the scintillant, resulting in the generation of quantifiable light. The assay is performed in a 96-well polystyrene microtiterplate (1450-514, Isoplates, Wallac, Turku, Finland). The reaction mixture (50 μl) contains 10 μl of the test compound together with 10 μl of the relevant kinase, diluted in the relevant dilution buffer, 5 μl of 10 μM phorbol myristate acetate (PMA) in H2O, 5 μl of 1.6 mM phosphatidylserine (Sigma-Aldrich Chemie GmbH, Stein-heim, Germany) in 20 mM Tris/HCL buffer pH 7.4, 5 μl of 0.3% BSA in H2O, 5 μl of 30 μM relevant substrate and 10 μl of 5 μM ATP and 0.1 μCi of ^33P-ATP (Amersham, Freiburg, Germany) in 200 mM Tris/HCL pH 7.5 and 200 mM MgCl2. Incubation is performed for 40 min at room temperature (RT) without shaking. Reaction is stopped by adding 150 μl of cold stop solution containing 10 mM ATP, 5 mM EGTA pH 7.5, 0.1% Triton X-100 and 0.2 mg streptavidin coated yttrium silicate SPA beads (Amersham, RPNQ 0012). The sealed plate is incubated for 60 min at RT. Thereafter the MTP is counted in a Microbeta Jet (Wallac). IC50 measurement is performed on a routine basis by incubation a serial dilution of inhibitor at concentrations ranging between 0.01 and 100 μM according to the method described above. Background values are the signals of the reaction mixture without addition of the relevant kinase and are subtracted from all values. 100% values are the signals of the reaction mixture without addition of inhibitors.
(§2) Dependent on the efficacy of the inhibitors In the various test systems, corresponding IC50 values are calculated from concentration-inhibition curves by nonlinear regression analysis using the program GraphPad Prism (GraphPad Software Inc., San Diego, Calif.).
Human recombinant PKCβ1 was obtained from Panvera and is used under the assay conditions as described above (Section A.1). The enzyme is diluted in PKC dilution buffer containing 1 mM Hepes pH 7.4, 0.5 mM DTT and 0.001% Triton X-100. The assay additionally contains 0.5 mM CaCl2. The kinase reaction is performed with the biotinylated PKCα pseudosubstrate solved in H2O. The examples 29, 45, 52, 128 and 139 inhibit PKC β1 in this assay with an IC50 between 2 and 40 μM.
For orientation: IC50 means the point on the concentration scale where inhibition reaches its midpoint. In the case of `CN(C)CCn1ccc2cc(-c3cc(Nc4ccc(NS(=O)(=O)c5c(F)cccc5F)cc4)ncn3)ccc21` [Example 139, N-(4-{6-[1-(2-Dimethylamino-ethyl)-1H-indol-5-yl]-pyrimidin-4-ylamino}-phenyl)-2,6-difluoro-benzenesulfonamide], the IC50 fell in the range of 2 to 40 µM.

`COc1ccc(S(=O)(=O)Nc2ccc(Nc3cc(-c4ccc(OCCCN5CCOCC5)cc4)ncn3)cc2)cc1` [Example 45, 4-Methoxy-N-(4-{6-[4-(3-morpholin-4-yl-propoxy)-phenyl]-pyrimidin-4-ylamino}-phenyl)-benzenesulfonamide]: the IC50 was 2 to 40 µM. As to `COc1ccc(-c2cc(Nc3ccc(NS(=O)(=O)c4ccccc4F)cc3)ncn2)cc1` [Example 29, 2-Fluoro-N-{4-[6-(4-methoxy-phenyl)-pyrimidin-4-ylamino]-phenyl}-benzenesulfonamide], the IC50 fell in the range of 2 to 40 µM.

The target of the next assay is T2, PKCθ (Homo sapiens, UniProt Q04759).
T2 construct: made in house; host or cells: Sf21 insect cells
T2 sequence (Q04759 whole entry): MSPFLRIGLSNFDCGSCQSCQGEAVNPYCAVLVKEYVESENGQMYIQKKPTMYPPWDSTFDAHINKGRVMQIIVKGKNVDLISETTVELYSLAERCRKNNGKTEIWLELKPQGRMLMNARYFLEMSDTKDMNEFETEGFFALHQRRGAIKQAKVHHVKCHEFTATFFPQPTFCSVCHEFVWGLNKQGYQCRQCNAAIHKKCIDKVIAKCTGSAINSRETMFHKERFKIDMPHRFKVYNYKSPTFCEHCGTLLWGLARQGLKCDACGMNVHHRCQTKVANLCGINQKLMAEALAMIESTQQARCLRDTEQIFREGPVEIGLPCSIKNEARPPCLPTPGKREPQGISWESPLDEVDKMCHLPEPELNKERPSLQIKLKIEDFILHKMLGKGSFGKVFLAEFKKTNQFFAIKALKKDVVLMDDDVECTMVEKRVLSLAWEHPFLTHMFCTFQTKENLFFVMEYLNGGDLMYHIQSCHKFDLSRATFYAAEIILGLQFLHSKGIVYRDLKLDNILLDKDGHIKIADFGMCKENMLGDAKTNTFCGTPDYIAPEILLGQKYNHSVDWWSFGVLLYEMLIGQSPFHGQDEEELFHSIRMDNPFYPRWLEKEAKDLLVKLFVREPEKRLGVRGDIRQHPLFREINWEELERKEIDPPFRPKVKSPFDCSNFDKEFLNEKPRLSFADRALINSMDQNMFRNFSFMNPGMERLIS
Nature of the assay: Protein Kinase C θ assay (SPA). It counts as biochemical. To be noted: human recombinant PKCθ from Sf21 insect cells, read-out: IC50, inhibition of PKC θ. The protocol:
as §1, §2
Human recombinant nickel bead purified PKCθ from Sf21 insect cells is used under the assay conditions as described above (Section A.1). The enzyme is diluted in PKC dilution buffer containing 1 mM Hepes pH 7.4, 0.5 mM DTT and 0.001% Triton X-100. The kinase reaction is performed with the biotinylated PKCθ pseudosubstrate solved in H2O. The examples 8, 22, 46, 115, 118 and 161 inhibit PKC 9 in this assay with an IC50<1 μM.
Consider `COc1ccc(S(=O)(=O)Nc2ccc(Nc3cc(-c4cccc(OCCCN5CCOCC5)c4)ncn3)cc2)cc1` [Example 46, 4-Methoxy-N-(4-{6-[3-(3-morpholin-4-yl-propoxy)-phenyl]-pyrimidin-4-ylamino}-phenyl)-benzenesulfonamide], for which the IC50 was less than 1 µM. Take `O=S(=O)(Nc1ccc(Nc2cc(-c3ccc4c(ccn4CCN4CCCC4)c3)ncn2)cc1)c1ccc(F)c(Cl)c1` [Example 161, 3-Chloro-4-fluoro-N-(4-{6-[1-(2-pyrrolidin-1-yl-ethyl)-1H-indol-5-yl]pyrimidin-4-ylamino}-phenyl)-benzenesulfonamide formic acid salt]: the IC50 was less than 1 µM. For `O=S(=O)(Nc1ccc(Nc2cc(-c3ccccc3)ncn2)cc1)c1c(F)cccc1F` [Example 8, 2,6-Difluoro-N-[4-(6-phenyl-pyrimidin-4-ylamino)-phenyl]-benzenesulfonamide], the 50% inhibitory concentration (IC50) is less than 1 µM. On the same count and under the same terms, to `CC1Cc2cc(-c3cc(Nc4ccc(NS(=O)(=O)c5c(F)cccc5F)cc4)ncn3)ccc2O1` (centres unmarked) [Example 115, 2,6-Difluoro-N-{4-[6-(2-methyl-2,3-dihydro-benzofuran-5-yl)-pyrimidin-4-ylamino]-phenyl}-benzenesulfonamide] belongs less than 1 µM.

For another assay, the target named is T3, PKCη (Homo sapiens, UniProt P24723).
T3 construct: made in house; host or cells: Sf21 insect cells
T3 sequence (P24723 whole entry): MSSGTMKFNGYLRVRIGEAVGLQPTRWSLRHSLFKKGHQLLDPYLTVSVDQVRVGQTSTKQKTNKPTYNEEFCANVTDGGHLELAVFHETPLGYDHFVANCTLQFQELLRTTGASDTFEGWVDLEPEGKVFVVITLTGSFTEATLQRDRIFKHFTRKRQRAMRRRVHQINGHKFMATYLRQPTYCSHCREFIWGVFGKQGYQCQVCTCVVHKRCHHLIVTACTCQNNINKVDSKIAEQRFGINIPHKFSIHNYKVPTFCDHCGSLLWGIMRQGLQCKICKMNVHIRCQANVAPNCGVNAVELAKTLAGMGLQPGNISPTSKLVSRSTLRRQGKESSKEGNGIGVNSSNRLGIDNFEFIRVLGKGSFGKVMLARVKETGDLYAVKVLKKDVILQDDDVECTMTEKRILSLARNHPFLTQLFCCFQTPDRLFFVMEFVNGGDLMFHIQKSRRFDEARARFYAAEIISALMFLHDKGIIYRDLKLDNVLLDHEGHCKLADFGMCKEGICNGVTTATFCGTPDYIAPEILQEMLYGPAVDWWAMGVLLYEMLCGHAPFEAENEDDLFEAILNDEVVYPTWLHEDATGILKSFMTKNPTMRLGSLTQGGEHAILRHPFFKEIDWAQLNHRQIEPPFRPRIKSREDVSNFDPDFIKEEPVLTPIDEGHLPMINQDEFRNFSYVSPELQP
Nature of the assay: Protein Kinase C η assay (SPA). Type of assay: biochemical. To be noted: human recombinant PKCη from Sf21 insect cells, read-out: IC50, inhibition of PKC η. On the procedure:
as §1, §2
Human recombinant nickel bead purified PKCη from Sf21 insect cells is used under the assay conditions as described above (Section A.1). The enzyme is diluted in PKC dilution buffer containing 1 mM Hepes pH 7.4, 0.5 mM DTT and 0.001% Triton X-100. The kinase reaction is performed with the biotinylated PKCη pseudosubstrate solved in H2O. The examples 52, 55, 118 and 135 inhibit PKC η in this assay with an IC50 between 6 and 50 μM.
With `Cc1ccc(S(=O)(=O)Nc2ccc(Nc3cc(-c4ccc5c(ccn5CCCN(C)C)c4)ncn3)cc2)cc1` [Example 135, N-(4-{6-[1-(3-Dimethylamino-propyl)-1H-indol-5-yl]-pyrimidin-4-ylamino}-phenyl)-4-methyl-benzenesulfonamide], the IC50 lay in the range of 6 to 50 µM. Take `Cc1ccc(S(=O)(=O)Nc2ccc(Nc3cc(-c4ccc(OCCCN5CCN(C)CC5)cc4)ncn3)cc2)cc1` [Example 55, 4-Methyl-N-[4-(6-{4-[3-(4-methyl-piperazin-1-yl)-propoxy]-phenyl}-pyrimidin-4-ylamino)-phenyl]-benzenesulfonamide]: the IC50 was 6 to 50 µM.

The target in the next assay is T4, PKCε (Homo sapiens, UniProt Q02156).
T4 construct: purchased Panvera
T4 sequence (Q02156 1-737): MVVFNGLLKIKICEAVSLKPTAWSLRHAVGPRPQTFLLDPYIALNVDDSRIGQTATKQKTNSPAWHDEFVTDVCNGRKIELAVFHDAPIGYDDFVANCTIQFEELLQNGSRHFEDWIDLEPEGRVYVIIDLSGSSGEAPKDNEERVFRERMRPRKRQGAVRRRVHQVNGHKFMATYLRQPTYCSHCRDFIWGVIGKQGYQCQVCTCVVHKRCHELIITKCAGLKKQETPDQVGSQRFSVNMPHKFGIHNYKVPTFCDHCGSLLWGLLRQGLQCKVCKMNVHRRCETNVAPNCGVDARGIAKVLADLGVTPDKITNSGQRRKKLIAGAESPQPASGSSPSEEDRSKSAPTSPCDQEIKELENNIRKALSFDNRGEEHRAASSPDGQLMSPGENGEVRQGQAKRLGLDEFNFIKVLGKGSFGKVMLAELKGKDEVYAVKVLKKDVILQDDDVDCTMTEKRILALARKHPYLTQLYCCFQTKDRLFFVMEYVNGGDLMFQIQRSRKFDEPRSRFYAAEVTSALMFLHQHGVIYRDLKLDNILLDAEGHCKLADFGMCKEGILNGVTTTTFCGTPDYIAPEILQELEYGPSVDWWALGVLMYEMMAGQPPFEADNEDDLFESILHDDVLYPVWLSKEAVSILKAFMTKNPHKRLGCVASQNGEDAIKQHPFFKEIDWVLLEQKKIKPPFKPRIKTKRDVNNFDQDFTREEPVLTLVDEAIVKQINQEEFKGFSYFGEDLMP
The assay can be described thus: Protein Kinase C ε assay (SPA). Type of assay: biochemical. To be noted: human recombinant PKCε, PKCη pseudosubstrate, read-out: IC50, inhibition of PKC ε. The protocol: as §1, §2
Human recombinant PKCε was obtained from Panvera and is used under the assay conditions as described above (Section A.1). The enzyme is diluted in PKC dilution buffer containing 1 mM Hepes pH 7.4, 0.5 mM DTT and 0.001% Triton X-100. The kinase reaction is performed with the biotinylated PKCη pseudosubstrate solved in H2O.
For `O=S(=O)(Nc1ccc(Nc2cc(-c3ccc(OCCCN4CCOCC4)cc3)ncn2)cc1)c1c(F)cccc1F` [Example 38, 2,6-Difluoro-N-(4-{6-[4-(3-morpholin-4-yl-propoxy)-phenyl]-pyrimidin-4-ylamino}-phenyl)-benzenesulfonamide], the IC50 was in the range of 4 to 21 µM. In the case of `CC(=O)c1ccc(-c2cc(Nc3ccc(NS(=O)(=O)c4c(F)cccc4F)cc3)ncn2)cc1` [Example 27, N-{4-[6-(4-Acetyl-phenyl)-pyrimidin-4-ylamino]-phenyl}-2,6-difluoro-benzenesulfonamide], the IC50 was 4 to 21 µM. On the same count and under the same terms, with `CN1CCN(CCOc2ccc(-c3cc(Nc4ccc(NS(=O)(=O)c5c(F)cccc5F)cc4)ncn3)cc2)CC1` [Example 47, 2,6-Difluoro-N-[4-(6-{4-[2-(4-methyl-piperazin-1-yl)-ethoxy]-phenyl}-pyrimidin-4-ylamino)-phenyl]-benzenesulfonamide] the figure was 4 to 21 µM.

For another assay, the target named is T5, PKCα (Homo sapiens, UniProt P17252).
T5 construct: purchased Panvera (Invitrogen GmbH, Karlsruhe, Germany)
The assay can be described thus: Protein Kinase Cα assay (SPA). It counts as biochemical. To be noted: human recombinant PKCα, biotinylated PKCα pseudosubstrate, 0.5 mM CaCl2, read-out: IC50, inhibition of PKCα. The protocol: as §1, §2
Human recombinant PKCα was obtained from Panvera (Invitrogen GmbH, Karlsruhe, Germany) and is used under the assay conditions as described above (Section A.1). The enzyme is diluted in PKC dilution buffer containing 1 mM Hepes pH 7.4, 0.5 mM DTT and 0.001% Triton X-100. The assay additionally contains 0.5 mM CaCl2. The kinase reaction is performed with the biotinylated PKCα pseudosubstrate solved in H2O.
On to `O=S(=O)(Nc1ccc(Nc2cc(-c3ccc4[nH]ccc4c3)ncn2)cc1)c1ccccc1F` [Example 120, 2-Fluoro-N-{4-[6-(1H-indol-5-yl)-pyrimidin-4-ylamino]-phenyl}-benzenesulfonamide], for which the IC50 was 1 to 18 µM. As for `O=S(=O)(Nc1ccc(Nc2cc(-c3ccc4[nH]ccc4c3)ncn2)cc1)c1c(F)cccc1F` [Example 119, 2,6-Difluoro-N-{4-[6-(1H-indol-5-yl)-pyrimidin-4-ylamino]-phenyl}-benzenesulfonamide], the IC50 is 1 to 18 µM. On the same count and under the same terms, to `O=S(=O)(Nc1ccc(Nc2cc(-c3ccc(OCCN4CCOCC4)cc3)ncn2)cc1)c1c(F)cccc1F` [Example 37, 2,6-Difluoro-N-(4-{6-[4-(2-morpholin-4-yl-ethoxy)-phenyl]-pyrimidin-4-ylamino}-phenyl)-benzenesulfonamide] belongs 1 to 18 µM; to `O=S(=O)(Nc1ccc(Nc2cc(-c3cccc4ccccc34)ncn2)cc1)c1c(F)cccc1F` [Example 16, 2,6-Difluoro-N-[4-(6-naphthalen-1-yl-pyrimidin-4-ylamino)-phenyl]-benzenesulfonamide], 1 to 18 µM. For `CN1CCN(CCn2ccc3cc(-c4cc(Nc5ccc(NS(=O)(=O)c6ccc(F)cc6F)cc5)ncn4)ccc32)CC1` [Example 150, 2,4-Difluoro-N-[4-(6-{1-[2-(4-methyl-piperazin-1-yl)-ethyl]-1H-indol-5-yl}-pyrimidin-4-ylamino)-phenyl]-benzenesulfonamide formic acid salt], the IC50 lay in the range of 1 to 18 µM.
